Reference: PubChem BioAssay (NCI)
“And” between values parts separate entries of the source, which are not always exact repeats. Equal values may be shown once.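 Briefly, cells in 96-well plates were exposed to five compound concentrations for 48 h, and endpoints were estimated by linear interpolation. The concentration for 50% growth inhibition is given as GI50. TGI: concentration producing complete growth inhibition.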

Columns and labels:
Experiment in all cases: DTP human tumour cell line panel, 48 h; in the data active = GI50 below about 0.43 µM; inactive = the rest
UACC-257 melanoma = test system: UACC-257 melanoma
HOP-18 NSCLC = test system: HOP-18 NSCLC
OVCAR-4 ovarian = test system: OVCAR-4 ovarian
SNB-19 CNS = test system: SNB-19 CNS
DLD-1 colon = test system: DLD-1 colon
NCI-H23 lung = test system: NCI-H23 lung
SW-620 colon = test system: SW-620 colon
OVCAR-5 ovarian = test system: OVCAR-5 ovarian
SR leukemia = test system: SR leukemia
SK-MEL-28 melanoma = test system: SK-MEL-28 melanoma
NCI-H460 lung = test system: NCI-H460 lung
SK-MEL-5 melanoma = test system: SK-MEL-5 melanoma
SF-295 CNS = test system: SF-295 CNS
OVCAR-8 ovarian = test system: OVCAR-8 ovarian
MALME-3M melanoma = test system: MALME-3M melanoma
XF 498 CNS = test system: XF 498 CNS
LXFL 529 NSCLC = test system: LXFL 529 NSCLC
IGROV1 ovarian = test system: IGROV1 ovarian
DMS 114 small cell lung = test system: DMS 114 small cell lung
SNB-78 CNS = test system: SNB-78 CNS
A549 NSCLC = test system: A549 NSCLC
SK-OV-3 ovarian = test system: SK-OV-3 ovarian
TK-10 renal = test system: TK-10 renal
CAKI-1 renal = test system: CAKI-1 renal
HCT-116 colon = test system: HCT-116 colon
A498 renal = test system: A498 renal
HCC-2998 colon = test system: HCC-2998 colon
DMS 273 small cell lung = test system: DMS 273 small cell lung
CCRF-CEM leukemia = test system: CCRF-CEM leukemia
EKVX NSCLC = test system: EKVX NSCLC
M19-MEL melanoma = test system: M19-MEL melanoma
K-562 leukemia = test system: K-562 leukemia
NCI-H226 lung = test system: NCI-H226 lung
RXF-631 renal = test system: RXF-631 renal
UACC-62 melanoma = test system: UACC-62 melanoma
HL-60(TB) leukemia = test system: HL-60(TB) leukemia
MOLT-4 leukemia = test system: MOLT-4 leukemia
SF-268 CNS = test system: SF-268 CNS
NCI-H522 lung = test system: NCI-H522 lung
LOX IMVI melanoma = test system: LOX IMVI melanoma
SK-MEL-2 melanoma = test system: SK-MEL-2 melanoma
HCT-15 colon = test system: HCT-15 colon
HT29 colon = test system: HT29 colon
M14 melanoma = test system: M14 melanoma
KM12 colon = test system: KM12 colon
UO-31 renal = test system: UO-31 renal
SN12C renal = test system: SN12C renal
OVCAR-3 ovarian = test system: OVCAR-3 ovarian
COLO 205 colon = test system: COLO 205 colon
SNB-75 CNS = test system: SNB-75 CNS
SF-539 CNS = test system: SF-539 CNS
RPMI-8226 leukemia = test system: RPMI-8226 leukemia
U251 CNS = test system: U251 CNS
KM20L2 colon = test system: KM20L2 colon
RXF 393 renal = test system: RXF 393 renal
HOP-62 NSCLC = test system: HOP-62 NSCLC
ACHN renal = test system: ACHN renal
786-0 renal = test system: 786-0 renal
HOP-92 NSCLC = test system: HOP-92 NSCLC

COC(=O)c1cc2c(c(C(=O)OC)c1O)C(=O)C=CC2=O
inactive: GI50 (UACC-257 melanoma) > 9.1 µM | GI50 (HOP-18 NSCLC) 16.3 µM | GI50 (OVCAR-4 ovarian) > 9.1 µM | GI50 (SNB-19 CNS) > 9.1 µM | GI50 (DLD-1 colon) > 9.1 µM | GI50 (NCI-H23 lung) > 9.1 µM | GI50 (SW-620 colon) > 9.1 µM | GI50 (SK-MEL-28 melanoma) > 9.1 µM | GI50 (NCI-H460 lung) > 9.1 µM | GI50 (SK-MEL-5 melanoma) > 9.1 µM | GI50 (SF-295 CNS) > 9.1 µM | GI50 (OVCAR-8 ovarian) > 9.1 µM | GI50 (MALME-3M melanoma) > 9.1 µM | GI50 (XF 498 CNS) 37.8 µM | GI50 (LXFL 529 NSCLC) 4.16 µM | GI50 (IGROV1 ovarian) > 9.1 µM | GI50 (DMS 114 small cell lung) > 9.1 µM | GI50 (SNB-78 CNS) > 9.1 µM | GI50 (A549 NSCLC) > 9.1 µM | GI50 (SK-OV-3 ovarian) > 9.1 µM | GI50 (TK-10 renal) > 9.1 µM | GI50 (CAKI-1 renal) > 100 µM | GI50 (HCT-116 colon) 3.49 µM | GI50 (A498 renal) > 9.1 µM | GI50 (HCC-2998 colon) > 9.1 µM | GI50 (DMS 273 small cell lung) > 9.1 µM | GI50 (EKVX NSCLC) > 9.1 µM | GI50 (M19-MEL melanoma) > 9.1 µM | GI50 (NCI-H226 lung) 18.5 µM | GI50 (RXF-631 renal) > 9.1 µM | GI50 (UACC-62 melanoma) 18 µM | GI50 (SF-268 CNS) > 9.1 µM | GI50 (NCI-H522 lung) 3.01 µM | GI50 (LOX IMVI melanoma) > 9.1 µM | GI50 (SK-MEL-2 melanoma) > 100 µM | GI50 (HCT-15 colon) > 9.1 µM | GI50 (HT29 colon) 18.4 µM | GI50 (M14 melanoma) > 9.1 µM | GI50 (KM12 colon) > 9.1 µM | GI50 (UO-31 renal) > 9.1 µM | GI50 (SN12C renal) > 9.1 µM | GI50 (OVCAR-3 ovarian) > 9.1 µM | GI50 (COLO 205 colon) > 9.1 µM | GI50 (SF-539 CNS) > 9.1 µM | GI50 (RPMI-8226 leukemia) 1790 nM | GI50 (U251 CNS) > 9.1 µM | GI50 (KM20L2 colon) > 9.1 µM | GI50 (RXF 393 renal) > 9.1 µM | GI50 (HOP-62 NSCLC) > 9.1 µM | GI50 (ACHN renal) > 9.1 µM | GI50 (786-0 renal) > 9.1 µM
> 71.6 µM: TGI (DMS 273 small cell lung)
> 49.4 µM: TGI (HCT-15 colon)
> 66.8 µM: TGI (SNB-78 CNS)
> 66.9 µM: TGI (M14 melanoma)
> 46.1 µM: TGI (DLD-1 colon)
> 9.1 µM and 5.6 µM: TGI (RPMI-8226 leukemia)
> 100 µM: TGI (XF 498 CNS) | TGI (SK-OV-3 ovarian) | TGI (CAKI-1 renal) | TGI (SK-MEL-2 melanoma)
> 40.4 µM: TGI (OVCAR-8 ovarian)
9.1 µM: TGI (LXFL 529 NSCLC)
4.31 µM: TGI (CCRF-CEM leukemia)
> 56.4 µM: TGI (KM20L2 colon)
> 48.7 µM: TGI (UACC-257 melanoma)
> 54.6 µM: TGI (OVCAR-5 ovarian) | TGI (TK-10 renal)
> 9.1 µM and 31.8 µM: TGI (SNB-75 CNS)
9.1 µM and > 26.9 µM: TGI (NCI-H522 lung)
> 48.9 µM: TGI (RXF 393 renal)
> 9.1 µM and 38.5 µM: TGI (HT29 colon)
> 9.1 µM and 16.9 µM: TGI (HCT-116 colon)
> 9.1 µM and 34.7 µM: TGI (NCI-H226 lung)
> 93.4 µM: TGI (HOP-62 NSCLC)
> 9.1 µM and 98.8 µM: TGI (COLO 205 colon)
> 56.9 µM: TGI (LOX IMVI melanoma) | TGI (UO-31 renal)
> 46.3 µM: TGI (ACHN renal)
> 9.1 µM and 33.7 µM: TGI (UACC-62 melanoma)
> 22 µM: TGI (SR leukemia)
> 54 µM: TGI (OVCAR-4 ovarian)
> 58.4 µM: TGI (MALME-3M melanoma)
> 60.7 µM: TGI (SNB-19 CNS)
> 57.4 µM: TGI (HCC-2998 colon)
> 58.5 µM: TGI (M19-MEL melanoma)
> 24.4 µM: TGI (HL-60(TB) leukemia)
> 55.8 µM: TGI (A498 renal) | TGI (U251 CNS)
> 22.7 µM: TGI (K-562 leukemia)
> 78.8 µM: TGI (DMS 114 small cell lung)
> 74.3 µM: TGI (NCI-H460 lung)
> 41.4 µM: TGI (EKVX NSCLC)
> 60.9 µM: TGI (OVCAR-3 ovarian)
> 55.2 µM: TGI (SF-268 CNS)
> 55.1 µM: TGI (SK-MEL-5 melanoma)
> 58.1 µM: TGI (SK-MEL-28 melanoma)
9.1 µM and 29.9 µM: TGI (HOP-18 NSCLC)
> 58.3 µM: TGI (A549 NSCLC) | TGI (KM12 colon)
> 21.9 µM: TGI (HOP-92 NSCLC)
> 31.6 µM: TGI (NCI-H23 lung)
> 21.5 µM: TGI (MOLT-4 leukemia)
> 21.3 µM: TGI (SW-620 colon)
> 58.6 µM: TGI (IGROV1 ovarian)
> 56.1 µM: TGI (SF-539 CNS) | TGI (786-0 renal)
> 71.2 µM: TGI (RXF-631 renal)
> 56.3 µM: TGI (SF-295 CNS) | TGI (SN12C renal)

N#CCCN(CCC#N)c1ccc(C(=O)NN)cc1
> 100 µM: TGI (UACC-257 melanoma) | TGI (HOP-18 NSCLC) | TGI (OVCAR-4 ovarian) | TGI (SNB-19 CNS) | TGI (DLD-1 colon) | TGI (NCI-H23 lung) | TGI (SW-620 colon) | TGI (OVCAR-5 ovarian) | TGI (SK-MEL-28 melanoma) | TGI (NCI-H460 lung) | TGI (SK-MEL-5 melanoma) | TGI (SF-295 CNS) | TGI (OVCAR-8 ovarian) | TGI (MALME-3M melanoma) | TGI (XF 498 CNS) | TGI (LXFL 529 NSCLC) | TGI (IGROV1 ovarian) | TGI (DMS 114 small cell lung) | TGI (SNB-78 CNS) | TGI (A549 NSCLC) | TGI (SK-OV-3 ovarian) | TGI (TK-10 renal) | TGI (CAKI-1 renal) | TGI (HCT-116 colon) | TGI (A498 renal) | TGI (HCC-2998 colon) | TGI (DMS 273 small cell lung) | TGI (CCRF-CEM leukemia) | TGI (EKVX NSCLC) | TGI (M19-MEL melanoma) | TGI (K-562 leukemia) | TGI (NCI-H226 lung) | TGI (RXF-631 renal) | TGI (UACC-62 melanoma) | TGI (HL-60(TB) leukemia) | TGI (MOLT-4 leukemia) | TGI (SF-268 CNS) | TGI (NCI-H522 lung) | TGI (LOX IMVI melanoma) | TGI (HCT-15 colon) | TGI (HT29 colon) | TGI (M14 melanoma) | TGI (KM12 colon) | TGI (UO-31 renal) | TGI (SN12C renal) | TGI (OVCAR-3 ovarian) | TGI (COLO 205 colon) | TGI (SNB-75 CNS) | TGI (SF-539 CNS) | TGI (RPMI-8226 leukemia) | TGI (U251 CNS) | TGI (KM20L2 colon) | TGI (RXF 393 renal) | TGI (HOP-62 NSCLC) | TGI (ACHN renal) | TGI (786-0 renal) | TGI (HOP-92 NSCLC)
